Where a name gives a salt, the structure may show the parent alone.
Key:
Type in all cases: cell-based
iPS cells (201B7 strain) [1] = experiment: Effective concentration of RFV derivatives: iPS cell growth in medium refrigerated for 2 weeks; design: key to cell growth: X; not grown; ◯; cell grown; conditions: for storage stability of medium compared with RFV: any medium (Essential 8 or TeSR2 supplement), refrigerated 2 weeks
Procedure: (§1) 201B7 strain purchased from iPS Academia Japan, Inc. was used as the iPS cell. Cell culture was performed using a culture vessel coated with Matrigel (Nippon Becton, Dickinson and Company: 354277) or iMatrix-511 (Nippi. Inc.: 892002) as an extracellular matrix under conditions of 5% CO2/37° C.
(§2) Modified DMEM/F-12 was mixed with each supplement of Essential 8 (Thermo Fisher SCIENTIFIC: A1517001), TeSR-E8 (STEMCELL Technologies: #05940), TeSR2 (STEMCELL Technologies: #05860) to prepare a complete medium. The medium was stored in a refrigerator with a glass door under non-light-shielding (fluorescent light irradiation time: 10 hr/day) and then used for culture, based on which the storage stability of the medium was studied.
The effectiveness of FAD and RTB, which are RFV derivatives, was studied, and the effective concentration ranges of FMN, FAD and RTB were studied. A complete medium was prepared using Modified DMEM/F-12 (FMN−) as the basal medium and Essential 8 or TeSR2 supplement as the supplement. RFV, FMN (Riboflavin 5′-Monophosphate Sodium Salt), FAD (Flavin Adenine Dinucleotide Disodium Salt Hydrate (Tokyo Chemical m Industry Co., Ltd., F0014, hereinafter the same)) and RTB (Riboflavin Tetrabutyrate, Wako Pure Chemical Industries, Ltd., 185-00861) were each added to the complete medium at a final concentration of 0.47 to 15.2 μM (concentration converted to free form anhydrate in the case of salt and/or hydrate). A medium supplemented with Fe^2+ and Zn^2+ at 100 mol % was also prepared.
(§3) Each medium was refrigerated under non-light-shielding for 2 weeks and then the proliferation ability of iPS cells was studied. A 12-well plate coated with Matrigel was prepared, 10,000 cells per well were seeded in a single cell state. On the day when the cells were seeded, the evaluation was performed using the medium prepared above. The culture period was set to 7 days, and the cell confluency was measured using IncuCyte Zoom on day 7 from the start of the culture. At the time of seeding, a medium supplemented with Y-27632 at a final concentration of 10 μM was used. In the evaluation from the following day, the cells were cultured in a medium not supplemented with Y-27632.
To study the effective concentration range of FAD, which is an RFV derivative, the unperformed part of Example 5 was evaluated. A complete medium was prepared using Modified DMEM/F-12 (FMN−) as the basal medium and TeSR2 supplement as the supplement. FAD (Flavin Adenine Dinucleotide Disodium Salt Hydrate) was added to the complete medium at a final concentration of 0.47 to 15.2 μM. A medium supplemented with Fe^2+ and Zn^2+ at 100 mol % was prepared.

iPS cells (201B7 strain) [2] = experiment: Influence of Fe, Zn, RFV on storage stability of medium (iPS cell confluency); conditions: Essential 8 supplement; for contribution to lowering of storage stability of the medium: 100 vs 25 mol % in Modified DMEM/F-12 with FMN 20 mol %, refrigerated 2 weeks
Procedure: as §1, §2
To what extent Fe^2+, Zn^2+ and RFV contribute to the storage stability of the medium was studied. Complete media were respectively prepared by adding each component to Modified DMEM/F-12 (FMN−) (Table 5). Each medium was refrigerated under non-light-shielding for 0 and 2 weeks and then the proliferation ability of iPS cells was studied.
as §3, with “A” for “Each medium was refrigerated under non-light-shielding for 2 weeks and then the proliferation ability of iPS cells was studied. A”

iPS cells (201B7 strain) [3] = experiment: Effectiveness of RFV during iPS cell culture (cell confluency, day 7); conditions: Modified DMEM/F-12 (FMN-) + Essential 8 supplement, RFV 0.00-0.176 mg/L, Fe2+ and Zn2+ 25 or 100 mol %, Matrigel
Procedure: 201B7 strain purchased from iPS Academia Japan, Inc. was used as the iPS cell. Cell culture was performed using a culture vessel coated with Matrigel (Nippon Becton, Dickinson and Company: 354277) or iMatrix-511 (Nippi. Inc.: 892002) as an extracellular matrix under conditions of 5% CO2/37° C. Whether RFV is an essential component during iPS cell culture was studied. A complete medium was prepared by mixing the basal medium (Solution A: Modified DMEM/F-12 (FMN−)) and Essential 8 supplement (Solution B). Media were prepared by adding RFV to the complete medium to final concentrations of 0.00, 0.0176, 0.044, 0.088, 0.176 mg/L (No. 1 to No. 5 in Table 3). Along therewith, to grasp the influence of the reduced mineral components, media supplemented with Fe^2+ and Zn^2+ at 100 mol % were also prepared (No. 6 to No. 10 in Table 3). After preparing the medium, a 12-well plate coated with Matrigel was prepared, and 10,000 cells per well were seeded in a single cell state. On the day when the cells were seeded, the evaluation was performed using the medium prepared above. The culture period was set to 7 days, and the cell confluency was measured as an index of cell proliferation using IncuCyte Zoom (Essen Bioscience) on day 7 from the start of the culture. […]

[4] = 0.47 μM (80 mol % vs DMEM/F-12), Fe2+ and Zn2+ 25 mol %, Essential 8 supplement, medium refrigerated 2 weeks
[5] = 0.47 μM (80 mol % vs DMEM/F-12), Fe2+ and Zn2+ 25 mol %, TeSR2 supplement, medium refrigerated 2 weeks
[6] = 0.47 μM (80 mol % vs DMEM/F-12), Fe2+ and Zn2+ 100 mol %, Essential 8 supplement, medium refrigerated 2 weeks
[7] = 0.47 μM (80 mol % vs DMEM/F-12), Fe2+ and Zn2+ 100 mol %, TeSR2 supplement, medium refrigerated 2 weeks, Example 5
[8] = 1.52 μM (259 mol % vs DMEM/F-12), Fe2+ and Zn2+ 25 mol %, Essential 8 supplement, medium refrigerated 2 weeks
[9] = 1.52 μM (259 mol % vs DMEM/F-12), Fe2+ and Zn2+ 100 mol %, Essential 8 supplement, medium refrigerated 2 weeks
[10] = 2.57 μM (437 mol % vs DMEM/F-12), Fe2+ and Zn2+ 25 mol %, TeSR2 supplement, medium refrigerated 2 weeks
[11] = 15.2 μM (2587 mol % vs DMEM/F-12), Fe2+ and Zn2+ 25 mol %, TeSR2 supplement, medium refrigerated 2 weeks
[12] = 15.2 μM (2587 mol % vs DMEM/F-12), Fe2+ and Zn2+ 100 mol %, TeSR2 supplement, medium refrigerated 2 weeks, Example 5
[13] = 2.57 μM (437 mol % vs DMEM/F-12), Fe2+ and Zn2+ 100 mol %, TeSR2 supplement, medium refrigerated 2 weeks, Example 5

Compound | cell growth (iPS cells (201B7 strain) [1]; [4]) | cell growth (iPS cells (201B7 strain) [1]; [5]) | cell growth (iPS cells (201B7 strain) [1]; [6]) | cell growth (iPS cells (201B7 strain) [1]; [7]) | cell growth (iPS cells (201B7 strain) [1]; 0.47 μM (80 mol % vs DMEM/F-12), Fe2+ and Zn2+ 100 mol %, TeSR2 supplement, medium refrigerated 2 weeks, Example 6) | cell growth (iPS cells (201B7 strain) [1]; [8]) | cell growth (iPS cells (201B7 strain) [1]; [9]) | cell growth (iPS cells (201B7 strain) [1]; [10]) | cell growth (iPS cells (201B7 strain) [1]; 2.57 μM (437 mol % vs DMEM/F-12), Fe2+ and Zn2+ 100 mol %, TeSR2 supplement, medium refrigerated 2 weeks, Example 6) | cell growth (iPS cells (201B7 strain) [1]; [11]) | cell growth (iPS cells (201B7 strain) [1]; [12]) | cell growth (iPS cells (201B7 strain) [1]; 15.2 μM (2587 mol % vs DMEM/F-12), Fe2+ and Zn2+ 100 mol %, TeSR2 supplement, medium refrigerated 2 weeks, Example 6) | concentration at which culturing was possible (comparison) (iPS cells (201B7 strain) [1]; Essential 8 or TeSR2 supplement, medium refrigerated 2 weeks) | storage stability of medium compared with RFV (iPS cells (201B7 strain) [1]) | cell growth (iPS cells (201B7 strain) [1]; [13]) | contribution to lowering of storage stability of the medium (iPS cells (201B7 strain) [2]) | cell growth after storage of medium (iPS cells (201B7 strain) [2]; medium refrigerated non-light-shielded 2 weeks, Matrigel, day 7) | effectiveness of RFV during iPS cell culture (cell confluency) (iPS cells (201B7 strain) [3])
Cc1cc2nc3c(=O)[nH]c(=O)nc-3n(C[C@H](O)[C@H](O)[C@H](O)COP(=O)(O)OP(=O)(O)OC[C@H]3O[C@@H](n4cnc5c(N)ncnc54)[C@H](O)[C@@H]3O)c2cc1C [FAD, Flavin Adenine Dinucleotide Disodium Salt Hydrate] | ◯ | ◯ | ◯ | ◯ | ◯ | ◯ | X | ◯ | ◯ | ◯ | X | X | higher for FAD than FMN and RTB | higher storage stability than that of RFV | – | – | – | –
Cc1cc2nc3c(=O)[nH]c(=O)nc-3n(C[C@H](O)[C@H](O)[C@H](O)COP(=O)(O)O)c2cc1C [FMN, Riboflavin 5′-Monophosphate Sodium Salt] | ◯ | ◯ | ◯ | ◯ | – | X | X | ◯ | – | X | X | – | – | higher storage stability than that of RFV | X | – | – | –
O.O.O.O.O.O.O.O=S(=O)([O-])[O-].[Fe+2] [Fe^2+, iron (II) sulfate heptahydrate] | – | – | – | – | – | – | – | – | – | – | – | – | – | – | – | do not contribute to lowering of storage stability | – | –
Cc1cc2nc3c(=O)[nH]c(=O)nc-3n(C[C@H](O)[C@H](O)[C@H](O)CO)c2cc1C [RFV, riboflavin] | X | ◯ | X | ◯ | – | X | X | X | – | X | X | – | – | – | X | – | cells could not grow after storage for 2 weeks | essential for cell culture
CCCC(=O)OC[C@@H](OC(=O)CCC)[C@@H](OC(=O)CCC)[C@H](Cn1c2nc(=O)[nH]c(=O)c-2nc2cc(C)c(C)cc21)OC(=O)CCC [RTB, Riboflavin Tetrabutyrate] | ◯ | ◯ | ◯ | ◯ | – | X | X | X | – | X | X | – | – | higher storage stability than that of RFV | X | – | – | –
O.O.O.O.O.O.O.O=S(=O)([O-])[O-].[Zn+2] [Zn^2+, zinc sulfate heptahydrate] | – | – | – | – | – | – | – | – | – | – | – | – | – | – | – | do not contribute to lowering of storage stability | – | –
